From article PMC8234462, “Novel Cyclophilin Inhibitor Decreases Cell Proliferation and Tumor Growth in Models of Hepatocellular Carcinoma” (Cancers, 2021) come the findings set out here.

“Also recorded” adds a separate entry of the source. Where only a bound is given, the exact number is not on record here.

What is called IC50 is the concentration that gives 50% inhibition.

Data set [1] concerns iPS neurons. In words: Cytotoxicity, CellTiter Glo. Type of data set: cell-based. The note with it: Homo sapiens, Neuron, 72 h, 3 days of treatment, read-out: IC50 (50% reduction in cell viability). As to the method:
(§1) The evaluation of the off-target effects of NV651 was performed by ImQuest BioSciences Inc. (Frederick, MD, USA) by analyzing the cytotoxicity in a panel of primary cells. NV651 was evaluated at a concentration of 30 µM and five serial half-logarithmic dilutions in triplicate. The positive control compounds for each cell type were purchased from Sigma-Aldrich (St. Louis, MO, USA) and were as follows:
(§2) CellTiter Glo was performed to evaluate cell viability. CellTiter Glo Luminescent Cell Viability Assay (Promega, Madison, WI, USA) was performed according to the manufacturer’s instructions.
On the technique in general: ATP-based viability assays read luminescence as a measure of living cells.

Data set [2] concerns Monocytes/Macrophages. Briefly: Cytotoxicity, CellTiter Glo. The class given is cell-based. Conditions: Homo sapiens, 168 h, 7 days of treatment, read-out: IC50 (50% reduction in cell viability). As to the method:
as §1, §2

The test system of data set [3] is Hepatocytes. In words: Cytotoxicity, CellTiter Glo. The class given is cell-based. The note with it: Homo sapiens, Hepatocyte, 48 h, 2 days of treatment, read-out: IC50 (50% reduction in cell viability). As to the method: as §1, §2
Data set [4] deals with Dendritic cells. In words: Cytotoxicity, CellTiter Glo. Type of data set: cell-based. The note with it: Homo sapiens, Dendritic cell, 168 h, 7 days of treatment, read-out: IC50 (50% reduction in cell viability). Here is the method: The evaluation of the off-target effects of NV651 was performed by ImQuest BioSciences Inc. (Frederick, MD, USA) by analyzing the cytotoxicity in a panel of primary cells. NV651 was evaluated at a concentration of 30 µM and five serial half-logarithmic dilutions in triplicate. The positive control compounds for each cell type were purchased from Sigma-Aldrich (St. Louis, MO, USA) and were as follows: Unstimulated human peripheral blood mononuclear cells (PBMCs), phytohemagglutinin (PHA)-stimulated PBMCs, monocytes/macrophages, dendritic cells, hepatocytes, induced pluripotent stem cell (iPS) neurons: […] AZT, kidney cells (RPTEC): cisplatin and iPS cardiomyocytes: Doxazosin. The isolation was based on Nair, Archer. Briefly, freshly separated PBMCs from one donor were suspended in DPBS at 4 × 10^6 cells per mL and cultured in a T-75 flask. Cells were incubated for 30 min and then washed 5–7 times with DPBS to remove nonadherent cells. Cells were cultured in RPMI 1640 supplemented with 10% FBS, 2-mM L-glutamine, 25-mM HEPES, […], 100-µg/mL streptomycin, 50-ng/mL rhGM-CSF and 50-ng/mL rhIL-4 and incubated for 7 days. After the incubation period, cells were cultured in the same media with the addition of LPS (10 ng/mL) for two days. […]

Data set [5] deals with HUH7. In words: Mitotic quantification by immunofluorescence. The class given is cell-based, human. The note with it: 10 or 100 nM, 48 h. Here is the method:
HUH7 cells were seeded at a concentration of 4.5 × 10^4 cells/well in a 6-well plate containing coverslips, followed by the treatment of NV651 at 10 or 100 nM or the equivalent volume in DMSO. After 48 h, samples were fixed with 4% PFA (Histolab, Cat# 02176, Gothenburg, Sweden) and permeabilized with 0.1% Triton x-100 (Sigma-Aldrich, Cat# X100-500ML, St. Louis, MO, USA) diluted in PBS. Samples were stained with 1-µg/mL of rat anti-tubulin (Abcam, Cat# ab6161, Cambridge, UK) for one hour at room temperature. Lastly, DAPI and secondary antibody goat anti-rat IgG AF546 conjugate (Invitrogen, Cat# A11081, Waltham, MA, USA) were added. Coverslips were mounted on glass slides adding fluorescent mounting media (Dako, Agilent, Santa Clara, CA, USA). Thirteen pictures at 10× were taken with a Zeiss Confocal microscope and quantified for the number of mitotic cells in relation to the total number of cells with ImageJ.

Data set [6] can be described thus: In vivo toxicity, body weight. The note with it: BALB/c nude mice; 25, 50 or 200 mg/kg daily IP for 5 days. As to the method: All the procedures related to animal handling, care and the treatment in this study were performed according to the guidelines approved by the Institutional Animal Care and Use Committee (IACUC) of Shanghai ChemPartner Ltd. (Shanghai, China) following the guidance of the Association for Assessment and Accreditation of Laboratory Animal Care (AAALAC). BALB/c nude mice were kept in individual ventilation cages at a constant temperature and humidity, with 5 animals in each cage. Animals had free access to irradiation-sterilized dry granule food during the entire study period and water. BALB/c nude mice between 6–8 weeks were treated with either 25, 50 or 200 mg/kg dissolved in 25% buffered beta OH cyclodextrin (n = 5 mice per treatment). Daily doses were given intraperitoneally (IP) for 5 days. Mice were weighted daily until the 6th day.

In data set [7] the test system is RPTECs. Briefly: Cytotoxicity, CellTiter Glo. Type of data set: cell-based, human. The note with it: Homo sapiens, RPTEC, 72 h, 3 days of treatment, read-out: IC50 (50% reduction in cell viability). Here is the method:
The evaluation of the off-target effects of NV651 was performed by ImQuest BioSciences Inc. (Frederick, MD, USA) by analyzing the cytotoxicity in a panel of primary cells. NV651 was evaluated at a concentration of 30 µM and five serial half-logarithmic dilutions in triplicate. The positive control compounds for each cell type were purchased from Sigma-Aldrich (St. Louis, MO, USA) and were as follows: Unstimulated human peripheral blood mononuclear cells (PBMCs), phytohemagglutinin (PHA)-stimulated PBMCs, monocytes/macrophages, dendritic cells, hepatocytes, induced pluripotent stem cell (iPS) neurons: […] AZT, kidney cells (RPTEC): cisplatin and iPS cardiomyocytes: Doxazosin. Human primary renal proximal tubule cells (hRPTEC, Lonza, Basel, Switzerland) were cultured at 1 × 10^4 cells/well in supplemented REGM medium (Lonza, Basel, Switzerland). Following overnight incubation for adherence, cells were treated with NV651 in triplicate. After a 3-day treatment, CellTiter Glo (Promega, Madison, WI, USA) was used. CellTiter Glo was performed to evaluate cell viability. CellTiter Glo Luminescent Cell Viability Assay (Promega, Madison, WI, USA) was performed according to the manufacturer’s instructions.

As to `CC(=O)CCC1C(=O)NC(C(C)C)C(=O)NC(Cc2cc(O)cc(F)c2)C(=O)N2CCCC(N2)C(=O)OC(C(C)=CC=CC(=O)OC(C)(C)C)CC=CC=CC(O)C(C)C1O` (stereo not shown) [NV651], the IC50 in data set [1] is greater than 30 µM; in data set [2] it was 24.3 µM; in data set [3], greater than 30 µM; in data set [4] it was 24.2 µM; in data set [7], 20.9 µM. Besides, the “number of mitotic counts” value in data set [5] is recorded as “increase in the number of mitotic counts”. For the same compound, the body weight change result in data set [6] is on record as “no significant weight loss or other clinical signs; also recorded: no body weight losses”.
